Assay results from US11912694B1, “2-(benzo[d]oxazol-2-yl)-N′-(2-(5-(4-chlorophenyl)-1,3,4-oxadiazol-2-ylthio)acetoxy)acetimidamide as an antimicrobial compound” (KING FAISAL UNIVERSITY, priority 2023, dated 2024).

Assays:
Bacillus cereus = test: Agar plate disc-diffusion, antibacterial, Bacillus cereus; format: cell-based; conditions: nutrient agar, 37° C., 48 hours
Description: (§1) The agar plate disc-diffusion method was applied. Sterilized filter papers (6 mm in diameter) were wetted with 10 μL of a solution of 2-(benzo[d]oxazol-2-yl)-N′-(2-(5-(4-chlorophenyl)-1,3,4-oxadiazol-2-ylthio)acetoxy)acetimidamide (3) to be tested, […], and the discs were allowed to air dry. The discs were then placed onto the surface of agar plates (nutrient agar for bacteria and Sabouraud's dextrose agar for fungi) seeded with the test organism. Each plate contained 15 mL of the agar medium, previously seeded with 0.2 mL of the broth culture of each organism pregrown for 18 hours. The plates were incubated at 37° C. for 48 hours and 72 hours for fungi. The inhibition zones were measured in mm. Discs impregnated with DMSO were used as a control, and their inhibition zone was subtracted from the tested compound's actual inhibition zone.

Staphylococcus aureus = test: Agar plate disc-diffusion, antibacterial, Staphylococcus aureus; format: cell-based; conditions: nutrient agar, 37° C., 48 hours
Description: as §1

Pseudomonas aeruginosa = test: Agar plate disc-diffusion, antibacterial, Pseudomonas aeruginosa; format: cell-based; conditions: nutrient agar, 37° C., 48 hours
Description: as §1

Escherichia coli = test: Agar plate disc-diffusion, antibacterial, Escherichia coli; format: cell-based; conditions: nutrient agar, 37° C., 48 hours
Description: as §1

Aspergillus flavus = test: Agar plate disc-diffusion, antifungal, Aspergillus flavus; format: cell-based; conditions: Sabouraud's dextrose agar, 37° C., 72 hours
Description: as §1

[1] = tested on: Chrysosporium keratinophilum; test: Agar plate disc-diffusion, antifungal, Chrysosporium keratinophilum; format: cell-based; conditions: Sabouraud's dextrose agar, 37° C., 72 hours
Description: as §1

[2] = A = concentration of comp. = 10,000 μL
[3] = B = concentration of comp. = 30,000 μL
[4] = C = concentration of comp. = 50,000 μL
[5] = A = concentration of comp. = 10,000 μg/mL
[6] = A = concentration of comp. = 10 mg/mL

Row | SMILES | inhibition zone (Bacillus cereus; [2]) | inhibition zone (Bacillus cereus; [3]) | inhibition zone (Bacillus cereus; [4]) | inhibition zone (Staphylococcus aureus; [2]) | inhibition zone (Staphylococcus aureus; [3]) | inhibition zone (Staphylococcus aureus; [4]) | inhibition zone (Pseudomonas aeruginosa; [5]) | inhibition zone (Pseudomonas aeruginosa; [3]) | inhibition zone (Pseudomonas aeruginosa; [4]) | inhibition zone (Escherichia coli; [5]) | inhibition zone (Escherichia coli; [3]) | inhibition zone (Escherichia coli; [4]) | inhibition zone (Aspergillus flavus; [2]) | inhibition zone (Aspergillus flavus; [3]) | inhibition zone (Aspergillus flavus; [4]) | inhibition zone [1, 6] | inhibition zone [1, 3] | inhibition zone [1, 4] | melting point
1 | O=C(O)c1cn(C2CC2)c2cc(N3CCNCC3)c(F)cc2c1=O [Cip., ciprofloxacin, reference compound] | 29 mm | 30 mm | 42 mm | 43 mm | 44 mm | 53 mm | 29 mm | 30 mm | 53 mm | 30 mm | 39 mm | 60 mm | 29 mm | 30 mm | 42 mm | 29 mm | 30 mm | 53 mm | –
2 | N/C(Cc1nc2ccccc2o1)=N\OC(=O)CSc1nnc(-c2ccc(Cl)cc2)o1 [Compound 3, 2-(benzo[d]oxazol-2-yl)-N′-(2-(5-(4-chlorophenyl)-1,3,4-oxadiazol-2-ylthio)acetoxy)acetimidamide] | 27 mm | 30 mm | 41 mm | 27 mm | 35 mm | 42 mm | 24 mm | 29 mm | 36 mm | 28 mm | 37 mm | 49 mm | 25 mm | 30 mm | 41 mm | 28 mm | 35 mm | 47 mm | 162 to 163 °C
